{"source": "patent US20210308138A1", "about": "“TISSUE TRANSGLUTAMINASE MODULATORS FOR MEDICINAL USE” (Aarhus Universitet, priority 2018, published 2021)", "key": {"[1]": {"system": "healthy male BKS(D)-Leprdb/JOrlRj heterozygous mice", "experiment": "Erectile function in vivo, peak intracavernosal pressure (PICP) over MAP", "conditions": "preliminary in vivo studies"}, "[2]": {"system": "small mesenteric arteries", "experiment": "Acetylcholine-induced endothelium-dependent relaxation of phenylephrine pre-contracted small mesenteric arteries, isometric myograph (ex vivo)", "parameters": "species or system Male Wistar rats", "method": "Small mesenteric arteries were mounted in microvascular myographs (Danish Myotechnology, Aarhus, Denmark) using two 40 μm wires and stretched to their optimal diameter for isometric tension recordings, which corresponded to 0.9 times the estimated internal diameter at 100 mmHg of transmural pressure. PSS solution in the myograph bath was heated to 37° C. and continuously bubbled with 5% CO2 in air to maintain pH (7.4). The vessel viability was tested at the beginning of each experiment by measuring the vasoconstrictor responses to a solution with a high K^+ concentration (KPSS), equivalent to PSS except that NaCl was exchanged for KCl on an equimolar basis, giving a final concentration of 123.7 mmol/L K^+ and the presence of endothelium was confirmed by addition of acetylcholine (ACh) (10^−5) after pre-constriction with noradrenaline (5·10^−6 mol/L), arteries with less than 75% of relaxation were discarded.\nMesenteric arteries from rats of different age were incubated with (10^−6 mol/L) LDN-27219 or vehicle for 25 minutes and pre-contracted with phenylephrine (Phe) (10^−5 mol/L). Then cumulative addition of acetylcholine (ACh) caused the relaxation of the mesenteric arteries and the concentration-response curves were constructed.\nRats of 5-7 weeks age, about 12 weeks age, and more than 30 weeks of age were tested respectively. The results of the isometric tension studies are shown in FIGS. 1, A), B) and C) respectively, each representing a different their age group.\n(§1) The small mesenteric arteries were prepared in the same way is described in example 1."}, "[3]": {"system": "small subcutaneous arteries obtained from human biopsies", "experiment": "Acetylcholine-induced relaxation of human small subcutaneous arteries", "conditions": "LDN-27219 3·10^−6 mol/L; acetylcholine 10^−8-10^−5 mol/L", "method": "(§2) Human subcutaneous arteries were obtained from fat biopsies of the gluteal region from both male and female patients (30-70 years of age) with essential hypertension.\n(§3) For ‘ex vivo’ studies, animals were randomly selected and euthanized by cervical dislocation and exanguination. The mesenteric arteries were immediately extracted and placed in 4° C. physiological saline solution (PSS, pH=7.4) of the following composition (mmol/L): 119 NaCl, 4.7 KCl, 1.18 KH2PO4, 1.17 MgSO4, 1.5 CaCl2), 24.9 NaHCO3, 0.026 EDTA and 5.5 glucose and small mesenteric arteries (internal diameters of 200-300 μm) were isolated. Human subcutaneous arteries (internal diameters of 300-400 μm) were dissected from the biopsies in the same conditions mentioned above for the mesenteric bed from rodents.\n(§4) Small human subcutaneous arteries were obtained from fat biopsies from the gluteal region of hypertensive patients and prepared as described in Example 1. Concentration-response curves for LDN-27219 were constructed as described in Example 4 (FIG. 5B) and relaxation measurements were performed as described in Example 1."}, "[4]": {"system": "small subcutaneous arteries obtained from human biopsies", "experiment": "Direct relaxation of human small subcutaneous arteries", "conditions": "LDN-27219 10^−8-10^−5 mol/L; hypertensive patients", "method": "as §2, §3, §4"}, "Male Wistar rats": {"system": "Male Wistar rats", "experiment": "Mean arterial pressure (MAP) in vivo measurement after intrajugular infusion", "method": "For ‘in vivo’ experiments Wistar rats of different age were fasted 8 h before anesthesia with 35 mg/kg of S-ketamine and 50 mg/kg of pentobarbital sodium administered intraperitoneally.\nMale Wistar rats with 12-14 and 30-35 weeks of age were anesthetized with s-ketamine (35 mg/kg) and pentobarbital (50 mg/kg) and placed on a heated blanket to maintain body temperature at 37° C. ECG needles were installed for electrocardiographic measurements and a solid state catheter (Millar Inc, Houston, USA) was introduced into the carotid artery to measure MAP. MAP and electrocardiographic data was continuously recorded on a computerized data acquisition system (PowerLab, ADInstruments). Adequate depth of anesthesia was checked periodically by the absence of the toe pinch withdrawal effect and ⅓ of the initial dose of anesthetics was administered intraperitoneally when needed (usually each 1½ h). Changes in MAP and electrocardiographic signal in response to intrajugular infusion during 3 minutes of different doses of LDN-27219 and the corresponding vehicle (PEG-400) were studied.\nThe Area Under the Curve (AUC) was calculated using Graphpad Prism 5.1 (GraphPad Software, San Diego, Calif., USA) for each response to the change in MAP that was collected during the experiments in example 3. The AUC gives information about the maximal response, and about the duration of the effect.\nRats of different age in these experiments were anesthetized, prepared and catheterized as described in Example 3."}, "[5]": {"system": "small mesenteric arteries", "experiment": "Direct relaxation of U46619 pre-contracted small mesenteric arteries, concentration-response curves", "parameters": "species or system Male Wistar rats", "method": "as §1\nThe small mesenteric arteries were pre-contracted with the thromboxane analogue, U46619 (4·10^−7 mol/L) and concentration-response curves for TG2 specific inhibitors, LDN-27219 (10^−8-10^−5 mol/L) and Z-DON (10^−8-3·10^−4 mol/L) were constructed. To study the role of the endothelial pathways in LDN-27219 relaxation, concentration-response curves were constructed for it in arteries whose endothelium had been removed mechanically by rubbing the lumen repeatedly with a human scalp hair."}, "[6]": {"system": "small mesenteric arteries", "experiment": "Acetylcholine-induced relaxation of small mesenteric arteries from healthy and diabetic BKS mice (ex vivo)", "parameters": "species or system male BKS(D)-Leprdb/JOrlRj mice", "method": "In these experiments, healthy control mice of different ages and diabetic adult mice were used and the relaxation measurements were performed as described in Example 1.\nHealthy male BKS(D)-Leprdb/JOrlRj heterozygous mice between 14-16 and 24-25 weeks of age, and diabetic homozygous mice between 16-17 weeks of age were tested respectively. The results of the isometric tension studies are shown in FIGS. 2, A), B) and C) respectively."}}, "note": "“Also recorded” adds a separate entry of the source.", "data": [{"smiles": "NNC(=O)CSc1nc2scc(-c3ccccc3)c2c(=O)n1-c1ccccc1", "note": "[LDN-27219]", "values": [{"measurement": "erectile function, peak intracavernosal pressure (PICP) over MAP", "setting": "[1]", "value": "increased erectile function"}, {"measurement": "LDN-27219 potentiation of ACh-induced vasodilation in presence of irreversible TG2 inhibitor", "setting": "[2]; LDN-27219 10^−6 mol/L with VA-5 10^−5 mol/L, ≈12 week rats", "value": "reduced or completely inhibited"}, {"measurement": "endothelium-dependent relaxation induced by acetylcholine, compared to vehicle", "setting": "[2]; LDN-27219 10^−6 mol/L, 25 min incubation, Phe 10^−5 mol/L pre-contraction, rats of different age", "value": "more potent endothelium-dependent relaxation; also recorded: increased the response to ACh"}, {"measurement": "age dependence of the effect on acetylcholine-induced relaxation", "setting": "[2]; LDN-27219 10^−6 mol/L, rats 6-7, ≈12 and >30 weeks old", "value": "more pronounced in old rats, than in young rats"}, {"measurement": "endothelium-derived relaxation induced by acetylcholine, compared to vehicle", "setting": "[3]", "value": "improves the endothelium-derived relaxation"}, {"measurement": "direct relaxation of human small subcutaneous arteries", "setting": "[4]", "value": "direct and dose-dependent relaxation"}, {"measurement": "mean blood pressure (MAP)", "setting": "Male Wistar rats; LDN-27219 0.1, 1.0 and 2.0 mg/kg, intrajugular infusion during 3 minutes, carotid artery", "value": "lowers the mean blood pressure"}, {"measurement": "age dependence of antihypertensive effect (AUC of MAP)", "setting": "Male Wistar rats; rats >30 weeks vs 12-14 weeks old", "value": "greater effect of LDN-27219 in older animals"}, {"measurement": "relaxation of U46619 pre-contracted arteries", "setting": "[5]; U46619 4·10^−7 mol/L, LDN-27219 10^−8-10^−5 mol/L, Z-DON 10^−8-3·10^−4 mol/L, endothelium intact", "value": "induced relaxation"}, {"measurement": "relaxation of U46619 pre-contracted arteries without an endothelium layer", "setting": "[5]; endothelium removed mechanically", "value": "significantly reduced relaxation"}, {"measurement": "endothelium-dependent relaxation induced by acetylcholine, compared to vehicle", "setting": "[6]; LDN-27219 3·10^−6 mol/L, healthy and diabetic mice", "value": "more potent endothelium-dependent relaxation"}, {"measurement": "dependence of the effect on age and diabetes", "setting": "[6]; healthy mice 14-16 and 24-25 weeks, diabetic mice 16-17 weeks", "value": "more pronounced in older mice, and particularly pronounced in diabetic mice"}]}]}
